pEC50, pIC50: −log10 of the molar value. Activity calls are given as the source filed them. No cut-off for these calls is given here. Bounds are passed on as bounds.

Data set [1] can be described thus: AUC (0 to 24 hrs) in Wistar Kyoto N-STZ-1.5 rat model of streptozotocin-induced diabetes at 0.1 to 1 mg/kg, po followed by glucose challenge during 2-week-dosing study. Format: ADME, organism-based. The arrangement: time 2 weeks, dose 0.1-1. As to conditions: in vivo.
Data set [2] is described as follows: Cmax in Sprague-Dawley rat at 1 mg/kg, po by high-performance LC-tandem MS analysis. Format: ADME, organism-based. The arrangement: route oral, dose 1 mg/kg. To be noted: in vivo.
Data set [3] concerns Rattus norvegicus. Kind of data set: Suppression of body weight in Wistar Kyoto N-STZ-1.5 rat model of streptozotocin-induced diabetes at 0.1 to 1 mg/kg, po followed by glucose challenge during 2-week-dosing study. To be noted: dose mg/kg 0.1-1, time 2.0 weeks. Format: functional, organism-based.
Data set [4] is described as follows: Oral bioavailability in Sprague-Dawley rat at 1 mg/kg by high-performance LC-tandem MS analysis. The data set is classed as ADME, organism-based. To be noted: in vivo.
Data set [5] in a line: MRT in ICR mouse at 1 mg/kg, po by high-performance LC-tandem MS analysis. To be noted: in vivo. Format: ADME, organism-based.
A short description of data set [6]: Cytotoxicity in human HepG2 cells assessed as intracellular ATP content level at 30 uM by ATPlite-M assay relative to control. To be noted: time 1 day, read-out: Activity. The data set is classed as cell-based. A general note: Cellular ATP, detected with luciferase, serves as a proxy for viable cell number.
Data set [7] in a line: Oral bioavailability in ICR mouse at 1 mg/kg by high-performance LC-tandem MS analysis. As to conditions: in vivo. Format: ADME, organism-based.
Data set [8] is described as follows: Volume of distribution at steady state in ICR mouse at 0.1 mg/kg, iv by high-performance LC-tandem MS analysis. The data set is classed as ADME, organism-based. To be noted: in vivo, read-out: Vdss.
Data set [9] in a line: Volume of distribution at steady state in Sprague-Dawley rat at 0.1 mg/kg, iv by high-performance LC-tandem MS analysis. Format: ADME, organism-based. As to conditions: in vivo, read-out: Vdss.
The test system of data set [10] is Rattus norvegicus. Kind of data set: Stimulation of insulin secretion in Wistar Kyoto N-STZ-1.5 rat model of streptozotocin-induced diabetes at 0.1 to 1 mg/kg, po followed by glucose challenge by ELISA. Format: functional, organism-based. To be noted: dose mg/kg 0.1-1. (In general: An ELISA detects its analyte on a solid surface through an enzyme-linked reagent.)

For data set [11], the target named is T1, Free fatty acid receptor 1 (Homo sapiens, UniProt O14842). Kind of data set: Agonist activity at human GPR40 expressed in CHO cells incubated for 60 mins by FLIPR based Ca2+ mobilization assay. Format: functional, cell-based.
T1 sequence (O14842 whole entry): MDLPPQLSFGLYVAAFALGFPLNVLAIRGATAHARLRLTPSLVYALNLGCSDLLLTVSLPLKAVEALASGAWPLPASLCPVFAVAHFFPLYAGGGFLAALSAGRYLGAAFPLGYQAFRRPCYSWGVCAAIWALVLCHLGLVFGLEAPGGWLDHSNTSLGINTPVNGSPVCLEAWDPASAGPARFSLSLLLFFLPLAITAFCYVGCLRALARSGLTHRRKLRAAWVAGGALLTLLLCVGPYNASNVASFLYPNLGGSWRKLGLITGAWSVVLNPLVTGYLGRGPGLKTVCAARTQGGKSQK
For data set [12], the target named is Voltage-gated inwardly rectifying potassium channel KCNH2 (Homo sapiens, UniProt Q12809). Briefly: Inhibition of human ERG.
Voltage-gated inwardly rectifying potassium channel KCNH2, sequence (Q12809 whole entry): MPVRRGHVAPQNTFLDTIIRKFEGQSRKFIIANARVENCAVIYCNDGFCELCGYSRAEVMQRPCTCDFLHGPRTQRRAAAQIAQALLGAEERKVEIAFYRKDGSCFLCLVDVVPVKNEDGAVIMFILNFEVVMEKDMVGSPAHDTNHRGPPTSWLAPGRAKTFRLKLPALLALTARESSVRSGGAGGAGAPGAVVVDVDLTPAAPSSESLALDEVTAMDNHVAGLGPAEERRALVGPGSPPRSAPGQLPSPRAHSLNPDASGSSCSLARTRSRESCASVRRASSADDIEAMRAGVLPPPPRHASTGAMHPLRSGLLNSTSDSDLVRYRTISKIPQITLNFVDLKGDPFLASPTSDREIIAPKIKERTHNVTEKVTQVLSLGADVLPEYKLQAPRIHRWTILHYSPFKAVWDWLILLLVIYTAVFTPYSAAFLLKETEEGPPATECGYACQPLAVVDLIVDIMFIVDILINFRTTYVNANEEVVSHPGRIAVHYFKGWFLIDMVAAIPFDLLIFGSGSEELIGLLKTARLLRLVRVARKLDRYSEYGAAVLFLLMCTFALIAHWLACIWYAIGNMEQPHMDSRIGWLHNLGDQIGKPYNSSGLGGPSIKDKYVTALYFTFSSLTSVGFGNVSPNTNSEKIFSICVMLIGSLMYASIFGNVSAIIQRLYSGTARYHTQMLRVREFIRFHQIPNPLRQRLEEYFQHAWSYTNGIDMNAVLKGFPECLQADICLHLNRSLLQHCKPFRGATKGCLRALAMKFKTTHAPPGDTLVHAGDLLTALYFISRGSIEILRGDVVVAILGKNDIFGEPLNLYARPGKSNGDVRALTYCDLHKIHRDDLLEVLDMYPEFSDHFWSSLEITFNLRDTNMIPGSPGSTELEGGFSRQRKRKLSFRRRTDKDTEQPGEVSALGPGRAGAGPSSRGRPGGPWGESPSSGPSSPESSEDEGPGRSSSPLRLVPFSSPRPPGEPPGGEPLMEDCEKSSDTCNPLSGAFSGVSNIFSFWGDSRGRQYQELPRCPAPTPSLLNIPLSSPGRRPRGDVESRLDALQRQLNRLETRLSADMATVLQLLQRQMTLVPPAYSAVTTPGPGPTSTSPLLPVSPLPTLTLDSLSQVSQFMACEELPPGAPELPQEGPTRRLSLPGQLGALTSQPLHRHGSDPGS
Data set [13] can be described thus: MRT in Sprague-Dawley rat at 1 mg/kg, po by high-performance LC-tandem MS analysis. As to conditions: in vivo. The data set is classed as ADME, organism-based.
A short description of data set [14]: Cmax in Wistar Kyoto N-STZ-1.5 rat model of streptozotocin-induced diabetes at 0.1 to 1 mg/kg, po followed by glucose challenge during 2-week-dosing study. Format: ADME, organism-based. The arrangement: time 2 weeks, dose 0.1-1. To be noted: in vivo.
Data set [15] can be described thus: AUC (0 to 8 hrs ) in ICR mouse at 1 mg/kg, po by high-performance LC-tandem MS analysis. The data set is classed as ADME, organism-based. The arrangement: time < 8 hr, route oral, dose 1 mg/kg. To be noted: in vivo.
For data set [16], the system named is Rattus norvegicus. Briefly: Suppression of glucose tolerance in Wistar Kyoto N-STZ-1.5 rat model of streptozotocin-induced diabetes at 0.1 to 1 mg/kg, po followed by glucose challenge. Format: functional, organism-based. To be noted: dose mg/kg 0.1-1.
Data set [17] is described as follows: Total clearance in ICR mouse at 0.1 mg/kg, iv by high-performance LC-tandem MS analysis. The data set is classed as ADME, organism-based. As to conditions: in vivo.
A short description of data set [18]: Cmax in ICR mouse at 1 mg/kg, po by high-performance LC-tandem MS analysis. The arrangement: route oral, dose 1 mg/kg. To be noted: in vivo. The data set is classed as ADME, organism-based.
Data set [19] can be described thus: Total clearance in Sprague-Dawley rat at 0.1 mg/kg, iv by high-performance LC-tandem MS analysis. To be noted: in vivo. The data set is classed as ADME, organism-based.
Data set [20] deals with T1, Free fatty acid receptor 1. Briefly: Agonist activity at human GPR40 expressed in CHO cells incubated for 60 mins by FLIPR based Ca2+ mobilization assay relative to gamma-linolenic acid. The data set is classed as functional, cell-based. As to conditions: filed as agonist.
The nature of data set [21]: AUC (0 to 8 hrs) in Sprague-Dawley rat at 1 mg/kg, po by high-performance LC-tandem MS analysis. The data set is classed as ADME, organism-based. The arrangement: time < 8 hr, route oral, dose 1 mg/kg. As to conditions: in vivo.
Data set [22] relates to Rattus norvegicus. Kind of data set: Stimulation of GLP1 release in Wistar Kyoto N-STZ-1.5 rat model of streptozotocin-induced diabetes at 0.1 to 1 mg/kg, po followed by glucose challenge by ELISA. Format: functional, organism-based. To be noted: dose mg/kg 0.1-1.

By bioavailability is commonly meant dose-corrected exposure relative to a reference, in per cent. Low readings indicate little systemic uptake, high ones much systemic uptake. In general, MRT refers to a mean duration of stay, worked out from the concentration-time curve. Broadly, the pEC50 is −log10 of the EC50, conventionally taken in molar units. Higher therefore signals a low EC50. What is called pIC50 is −log10 of the IC50, conventionally taken in molar units. A high value points to a small IC50. The term clearance denotes the rate of elimination divided by the concentration. One may read the Emax as the size of the effect at its maximum, as opposed to the concentration needed. In the case of `COc1ccc(C(=O)N(CC(C)(C)C)c2cccc(C)n2)c(N2CCC(COc3cc([C@@H](CC(=O)O)C4CC4)ccn3)CC2)c1`, in [1], the AUC(0-t) at 336 h was determined as 626 ng·h/mL. Also, the Cmax in data set [2] was determined as 19.9 ng/mL; in data set [14], 139 ng/mL; in [18], 33.2 ng/mL. Moreover, the result in data set [3], in data set [10], in [16] and in data set [22] was Active. Also, the bioavailability turned out to be 16% in [4] and 26% in data set [7]. Further, the MRT in [5] turned out to be 2.3 h; in data set [13], 4.1 h. Besides, in data set [6], the viability at 24 h, 30 µM worked out at 92.1%. Also, the Vd was 1.35 L/kg in data set [8] and 3.09 L/kg in [9]. In addition, the pEC50 in data set [11] was 7.92. In [12], this compound showed a pIC50 of under 5.00. Also, the AUC(0-t) at 8 h in data set [15] worked out at 98.7 ng·h/mL; in data set [21], 127 ng·h/mL. The values for the clearance in [17] and in data set [19] were 43.1 mL/min/kg and 24.6 mL/min/kg, respectively. Further, the Emax in data set [20] worked out at 108%.

(Values after ChEMBL document CHEMBL4725394 (J Med Chem, 2020).)
